Test results reported in ChEMBL document CHEMBL5725522, “Inhibitors of bruton's tyrosine kinase” (2017).
pIC50: −log10 of the molar value.

Target: Tyrosine-protein kinase BTK (Homo sapiens, UniProt Q06187)
Test: TR-FRET (Time Resolved FRET) Assay: This BTK competition assay measures compound potency (IC50) for the inactivated state of Bruton's Tyrosine Kinase using FRET (Förster/Fluorescence Resonance Energy Transfer) technology. The BTK-Eu complex was incubated on ice one hour prior to use at a starting concentration of 50 nM BTK-Bioease: 10 nM Eu-streptavidin (Perkin-Elmer Catalog#AD0062). The assay buffer consisted of 20 mM HEPES (pH 7.15), 0.1 mM DTT, 10 mM MgCl2, 0.5 mg/ml BSA with 3% Kinase Stabilizer (Fremont Biosolutions, Catalog #STB-K02). After 1 h, the reaction mixture from above was diluted 10 fold in assay buffer to make 5 nM BTK: 1 nM Eu-Streptavidin complex (donor fluorophore). 18 μl of a mixture of 0.11 nM BTK-Eu and 0.11 nM Kinase Tracer 178 (Invitrogen, Catalog #PV5593,) with BTK-Eu alone as no negative control, was then dispensed into 384-well flat bottom plates (Greiner, 784076). Compounds to be tested in assay were prepared as 10× concentrations and serial dilution in half-log increments was performed in DMSO so as to generate 10 point curves. […]

Tyrosine-protein kinase BTK, sequence (Q06187 whole entry): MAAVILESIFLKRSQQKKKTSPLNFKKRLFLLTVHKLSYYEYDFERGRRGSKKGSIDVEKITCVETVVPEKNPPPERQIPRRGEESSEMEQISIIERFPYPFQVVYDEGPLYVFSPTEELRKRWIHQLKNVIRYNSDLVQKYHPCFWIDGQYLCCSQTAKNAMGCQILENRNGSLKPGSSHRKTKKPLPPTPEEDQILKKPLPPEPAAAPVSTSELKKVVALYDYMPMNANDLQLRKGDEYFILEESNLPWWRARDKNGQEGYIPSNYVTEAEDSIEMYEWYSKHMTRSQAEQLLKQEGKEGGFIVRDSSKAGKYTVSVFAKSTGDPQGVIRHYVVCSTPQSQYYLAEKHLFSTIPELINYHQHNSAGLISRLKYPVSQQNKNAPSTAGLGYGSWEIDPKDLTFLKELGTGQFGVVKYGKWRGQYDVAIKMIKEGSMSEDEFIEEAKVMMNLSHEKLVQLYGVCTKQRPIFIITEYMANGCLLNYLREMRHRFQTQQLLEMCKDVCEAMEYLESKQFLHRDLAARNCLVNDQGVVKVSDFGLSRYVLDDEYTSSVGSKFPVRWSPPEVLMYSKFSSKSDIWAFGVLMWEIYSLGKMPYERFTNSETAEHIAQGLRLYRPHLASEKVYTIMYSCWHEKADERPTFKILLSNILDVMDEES

Row | Compound | pIC50
1 | CN1CCC(NC(=O)c2ccc3[nH]c(C(=O)c4cnn(-c5ccc(Oc6ccccc6C(=O)N(C)C)cc5Cl)c4N)cc3c2)C1 (configuration not stated) | 8.54
2 | O=C(c1cc2cc(C(=O)N3CCOCC3)ccc2[nH]1)c1cnn2c1[nH]c(=O)c1cc(Oc3cccc(F)c3F)ccc12 | < 4.00
